Data on 8 compounds can be found in US6500824B1, “Kappa (OP2) opioid receptor antagonists” (Regents of the University of Minnesota, priority 1998, dated 2002).

For assay [1], the target named is T1, kappa (OP2) opioid receptor (Cavia porcellus, UniProt P41144).
T1 construct: a strip of longitudinal muscle with the myenteric plexus attached was prepared; from tissue; host or cells: guinea pig ileal longitudinal muscle with myenteric plexus
In words: Guinea pig ileal longitudinal muscle (GPI) smooth muscle assay, antagonism of ethylketazocine (EKC). It counts as cell-based. The method, then: (§1) 1. Guinea Pig Ileal Longitudinal Muscle (GPI). Ilea from guinea pigs were taken approximately 10 cm from the ileocecal junction, and a strip of longitudinal muscle with the myenteric plexus attached was prepared by the method of H. B. Rang et al., Brit. J Pharmacol., 1964, 22, 356. A 1 cm portion of this strip was then mounted between two platinum electrodes placed in a 10 ml organ bath and connected to an isometric transducer, contractions were recorded on a polygraph. Contractions of the ileal strip were initiated by supramaximal rectangular pulses in all preparations (80 V of 0.5 ms duration at a frequency of 0.1 Hz). Krebs bicarbonate solution containing […] chloropheniramine maleate was the bathing solution and was continuously bubbled with 95% O2 and 5% CO2. The organ bath was maintained at 36-37° C. The longitudinal strip was allowed to equilibrate with continuous stimulation for a minimum of 90 min. Cumulative concentration-response curves were determined after drugs were added to the bath in preselected amounts and washed out with buffer after noting their maximum effects.
(§2) The standard agonists employed were [D-Ala^2, D-Leu^5]enkephalin (DADLE) (D), morphine (M) and ethylketazocine (EKC); these are selective for delta (D), mu (M) and kappa (EKC) opioid receptors, respectively. Concentration-response curves were obtained in the absence (control) and the presence of the antagonist and were determined as IC50 values. The IC50 ratio represents the IC50 in the presence of the antagonist divided by the control IC50 value in the same tissue. A concentration independent value of antagonist potency is calculated from the equation, Ke=[antagonist]/(IC50 ratio-1).

Assay [2] has as its system μ(OP3) opioid receptor. Description: Guinea pig ileal longitudinal muscle (GPI) smooth muscle assay, antagonism of morphine. It counts as cell-based. Conditions: agonist morphine, antagonist concentration 100 nM. As for the experimental part: as §1, §2
For assay [3], the target named is T2, wt κ receptor (Rattus norvegicus, UniProt P34975).
T2 construct: expressed in transfected cells; host or cells: COS-7 (per the earlier reading)
In words: Competition binding with [3H]diprenorphine, whole cell binding, COS-7 cells, wt κ. An excerpt:
(§3) The effects of mutational exchange of Glu297 in the κ receptor and Lys303 in the μ receptor on the binding affinity of representative compounds of the invention were examined using techniques known in the art.

For assay [4], the target named is T3, κ[E297K] receptor (Rattus norvegicus, UniProt P34975, E297K).
T3 construct: expressed in transfected cells; host or cells: COS-7 (per the earlier reading)
Description: Competition binding with [3H]diprenorphine, whole cell binding, COS-7 cells, κ[E297K].
Text: as §3

Assay [5] deals with wt μ receptor. Description: Competition binding with [3H]diprenorphine, whole cell binding, COS-7 cells, wt μ. Set-up: species or system rat. Conditions: wt μ.
Text: as §3

Assay [6] has as its target T4, wt μ receptor (Rattus norvegicus, UniProt P33535).
T4 construct: expressed in transfected cells; host or cells: COS-7 (per the earlier reading)
The assay is described as above.
Text: as §3

For assay [7], the target named is T5, δ(OP1) opioid receptor (Mus musculus, UniProt P32300).
T5 construct: Both vasa deferentia were dissected out of mice and mounted singly; from tissue; host or cells: mouse vas deferens
In words: Mouse vas deferens (MVD) smooth muscle assay, antagonism of DADLE. It is filed as cell-based. The method, then: 2. Mouse Vas Deferens (MvD). This assay was performed according to the description by G. Henderson et al., Brit. J. Pharmacol., 1972, 46,764. Both vasa deferentia were dissected out of mice and mounted singly through two platinum electrodes in a 10 ml organ bath. The bath contained Krebs bicarbonate solution that was continuously bubbled with 95% O2 and 5% CO2. The organ bath was maintained at 37° C. The tissue was attached to an isometric transducer and stimulated transmurally with rectangular pulses ([…], 1 ms duration, supramaximal voltage). Drugs were added cumulatively to the bath in preselected amounts and washed out after noting their maximum effects.
as §2

Assay [8] deals with T6, μ[K303E] receptor (Rattus norvegicus, UniProt P33535, K303E).
T6 construct: expressed in transfected cells; host or cells: COS-7 (per the earlier reading)
In words: Competition binding with [3H]diprenorphine, whole cell binding, COS-7 cells, μ[K303E].
Text: as §3

Assay [9] deals with T7, kappa opioid receptor (Cavia porcellus, UniProt P41144).
T7 construct: a strip of longitudinal muscle with the myenteric plexus attached was prepared; from tissue; host or cells: guinea pig ileal longitudinal muscle with myenteric plexus
In words: GPI preparation, kappa antagonist potency against U-50488H. It is filed as cell-based, guinea pig. Conditions: GPI; agonist U-50488H; read-out: Ke. As for the experimental part: as §1

Where [10] appears, read: GPI, agonist EKC, antagonist concentration 100 nM, read-out: Antagonist Potency Ke κ(OP2) EKC.

Like-named read-outs stand apart in the source and are kept apart here.

Take `CCNC(=N)Nc1ccc2[nH]c3c(c2c1)C[C@@]1(O)[C@H]2Cc4ccc(O)c5c4[C@@]1(CCN2CC1CC1)[C@H]3O5.O.O.O=C(O)C(F)(F)F.O=C(O)C(F)(F)F` [Compound 16, 5′-N-Ethylguanidinyl-17-cyclopropylmethyl-6,7-didehydro-4,5-α-epoxy-3,14-dihydroxyindolo[2′,3′:6,7]morphinan Ditrifluoroacetate Dihydrate]: in assay [1] (setting [10]), the Kb was 0.157 nM. The “Antagonist Potency Ke μ(OP3) Morphine” value in [2] worked out at 19.00 nM.

As to `CCCCNC(=N)Nc1ccc2[nH]c3c(c2c1)C[C@@]1(O)[C@H]2Cc4ccc(O)c5c4[C@@]1(CCN2CC1CC1)[C@H]3O5.O.O.O=C(O)C(F)(F)F.O=C(O)C(F)(F)F` [Compound 17, 5′-N-Butylguanidinyl-17-cyclopropylmethyl-6,7-didehydro4,5α-epoxy-3,14-dihydroxyindolo[2′,3′:6,7]morphinan Ditrifluoroacetate Dihydrate], the Kb in assay [1] (setting [10]) was 0.09 nM.

As to `CNC(=N)Nc1ccc2[nH]c3c(c2c1)C[C@@]1(O)[C@H]2Cc4ccc(O)c5c4[C@@]1(CCN2CC1CC1)[C@H]3O5.O.O.O=C(O)C(F)(F)F.O=C(O)C(F)(F)F` [Compound 18, 5′-Methylguanidinyl-17-cyclopropylmethyl-6,7-didehydro4,5α-epoxy-3,14-dihydroxyindolo[2′,3′:6,7]morphinan Ditrifluoroacetate Dihydrate], the Kb in assay [1] (setting [10]) is listed as 0.59 nM. Besides, in assay [2], the “Antagonist Potency Ke μ(OP3) Morphine” value is 10.8 nM.

With `N#C/N=C(\N)Nc1ccc2[nH]c3c(c2c1)C[C@@]1(O)C2Cc4ccc(O)c5c4[C@@]1(CCN2CC1CC1)C3O5` (stereo partly drawn) [Compound 19, 5′-N′-Cyano-N-[17-(cyclopropylmethyl)-6,7-didehydro4.5α-epoxy-3,14-dihydroxyindolo[2′,3′:6,7]morphinian]-Guanidine], the Ki was found to be 0.27 ± 0.01 nM in assay [3], 2.48 ± 0.82 nM in assay [4], 4.04 ± 1.23 nM in assay [6] and 0.29 ± 0.05 nM in assay [8]. In addition, the “Fana = Ki(analog)/Ki(nor-BNI on the wt κ receptor)” value in [3] (wt κ) was found to be 2.25. In addition, the “Fmut = mutational factor, Ki(mutant receptor)/Ki(wt κ receptor)” value is on record as 9.2 in assay [4] (κ[E297K]), 15 in assay [5] and 1.1 in assay [8] (μ[K303E]). In addition, the Kb stood at 3.13 nM in [1] and 9.08 nM in [7]. In [1] (in vitro, versus morphine and DADLE antagonism), the “kappa opioid receptor selectivity (in words)” value is “demonstrated selectivity”. For the same compound, the “Antagonist Potency Ke μ(OP3) Morphine” value in assay [2] is 16.13 nM.

In [1], `CN(C)CCCN/C(=N\C#N)Nc1ccc2[nH]c3c(c2c1)C[C@@]1(O)C2Cc4ccc(O)c5c4[C@@]1(CCN2CC1CC1)C3O5` (stereo partly drawn) [Compound 20, 5′-N-Cyano-N′-[3-(dimethylaminopropyl)]-N″-[17-(cyclopropylmethyl)6,7-didehydro4,5α-epoxy-3,14-dihydroxyindolo[2′,3′:6,7]morphinian]-guanidine] came in with a Kb of 0.24 nM. The “Antagonist Potency Ke μ(OP3) Morphine” value in assay [2] was 10.4 nM.

`N#C/N=C(\NCCN1CCCC1)Nc1ccc2[nH]c3c(c2c1)C[C@@]1(O)C2Cc4ccc(O)c5c4[C@@]1(CCN2CC1CC1)C3O5` (stereo partly drawn) [Compound 21, 5′-N-Cyano-N′-[2-(1-aminoethylpyrrolidine)]-N″-[17-(cyclopropylmethyl)-6,7-didehydro4,5α-epoxy-3,14dihydroxyindolo[2′,3′:6,7]morphinian]-guanidine]: the Kb in assay [1] turned out to be 0.47 nM; in assay [7], 127 nM. In addition, the “Antagonist Potency Ke μ(OP3) Morphine” value in assay [2] is given as 5.71 nM.

For `Oc1ccc2c3c1O[C@H]1c4[nH]c5ccccc5c4C[C@@]4(O)[C@@H](C2)N(CC2CC2)CC[C@]314` [Naltrindole (NTI) 1, naltrindole, reference compound], in [1] (setting [10]), the Kb stood at 45 nM.

Take `Oc1ccc2c3c1O[C@H]1c4[nH]c5c(c4C[C@@]4(O)[C@@H](C2)N(CC2CC2)CC[C@]314)C[C@@]1(O)[C@H]2Cc3ccc(O)c4c3[C@@]1(CCN2CC1CC1)[C@H]5O4` [nor-BNI, norbinaltorphimine, reference compound]: the Kb in [9] is 0.2 nM; in assay [1] (setting [10]), 0.56 nM. Besides, the Ki is 0.12 ± 0.04 nM in assay [3] ([3H]diprenorphine competition, COS-7 whole cell binding, read-out: Ki ± SEM, wt κ) and 12.5 ± 0.92 nM in assay [4] ([3H]diprenorphine competition, COS-7 whole cell binding, read-out: Ki ± SEM, κ[E297K]). Moreover, the “Antagonist Potency Ke μ(OP3) Morphine” value in [2] is recorded as 13.7 nM.

For orientation: Ki means a dissociation constant, usually derived from enzyme kinetics or from competition with a known ligand.
